Experimental data taken from US11970493B2, “Autotaxin inhibitor compounds” (ILDONG PHARMACEUTICAL CO., LTD., priority 2020, dated 2024).
Structures can show the parent of a compound that is named as a salt.

The compounds below were run against hATX/ENPP2 (Homo sapiens, UniProt Q13822) (assay: hATX/ENPP2 biochemical assay using 16:0-LPC as substrate (Amplex Red/choline oxidase/HRP fluorescence)). Conditions: hENPP2 2.5 nM, LPC (16:0) substrate.
Protocol: The enzyme is diluted in 50 mM Tris-HCl pH 8.0, 140 mM NaCl, 5 mM CaCl2, 0.01% Triton X-100 in a total volume of 5 μL. The aqueous solution of enzyme is added to the wells and incubated with different concentrations of the compounds at room temperature for 15 min. The reaction is started by the addition of 5 μL of 80 μM LPC (16:0) and 10 μL of the detection mixture containing 200 μM Amplex Red, 10 U/mL choline oxidase and 4 U/mL HRP. Fluorescence at 590 nm was measured kinetically with excitation at 530 nm. The slope of the curve (from 60 to 70 min of the reaction time) was used to calculate the compounds' IC50 values.

Row | IC50 [nM] | Compound
1 | ≤ 20 | CCc1nc2ccc(-c3cnc(N4CCC(NC5(CO)CC5)CC4)nc3)cn2c1N(C)c1nc(-c2ccc(F)cc2)c(C#N)s1 [Compound 18, 2-((2-ethyl-6-(2-(4-((1-(hydroxymethyl)cyclopropyl)amino)piperidin-1-yl)pyrimidin-5-yl)imidazo[1,2-a]pyridin-3-yl) (methyl)amino)-4-(4-fluorophenyl)thiazole-5-carbonitrile]
2 | 20 to 200 | CCc1nc2ccc(-c3cnc(C(=O)N4CC[C@H](O)C4)nc3)cn2c1N(C)c1nc(-c2ccc(F)cc2)c(C#N)s1 [Compound 48, (S)-2-((2-ethyl-6-(2-(3-hydroxypyrrolidine-1-carbonyl)pyrimidin-5-yl)imidazo[1,2-a]pyridin-3-yl)(methyl)amino)-4-(4-fluorophenyl) thiazole-5-carbonitrile]
3 | ≤ 20 | CCc1nc2ccc(-c3cnc(N4CCC(NC(=O)[C@@H]5C[C@H](O)CN5)CC4)nc3)cn2c1N(C)c1nc(-c2ccc(F)cc2)c(C#N)s1 [Compound 75, (2S,4S)—N-(1-(5-(3-((5-cyano-4-(4-fluorophenyl)thiazol-2-yl)(methyl)amino)-2-ethylimidazo[1,2-a]pyridin-6-yl)pyrimidin-2-yl)piperidin-4-yl)-4-hydroxypyrrolidine-2-carboxamide]
4 | 20 to 200 | CCc1nc2ccc(-c3cnc(N4CC(N)C4)nc3)cn2c1N(C)c1nc(-c2ccc(F)cc2)c(C#N)s1 [Compound 3, 2-((6-(2-(3-aminoazetidin-1-yl)pyrimidin-5-yl)-2-ethylimidazo[1,2-a]pyridin-3-yl)(methyl)amino)-4-(4-fluorophenyl)thiazole-5-carbonitrile]
5 | 20 to 200 | CCc1nc2ccc(-c3cnc(N4CC(NC5CC5)C4)nc3)cn2c1N(C)c1nc(-c2ccc(F)cc2)c(C#N)s1 [Compound 105, 2-((6-(2-(3-(cyclopropylamino)azetidin-1-yl)pyrimidin-5-yl)-2-ethylimidazo[1,2-a]pyridin-3-yl)(methyl)amino)-4-(4-fluorophenyl)thiazole-5-carbonitrile]
6 | 20 to 200 | CCc1nc2ccc(-c3cnc(N4CC(NC(=O)[C@@H]5C[C@@H](O)CN5)C4)nc3)cn2c1N(C)c1nc(-c2ccc(F)cc2)c(C#N)s1 [Compound 26, (2S,4R)—N-(1-(5-(3-((5-cyano-4-(4-fluorophenyl)thiazol-2-yl)(methyl)amino)-2-ethylimidazo[1,2-a]pyridin-6-yl)pyrimidin-2-yl)azetidin-3-yl)-4-hydroxypyrrolidine-2-carboxamide]
7 | 20 to 200 | CCc1nc2ccc(-c3cnc(N4CC(NC(=O)C5(C#N)CC5)C4)nc3)cn2c1N(C)c1nc(-c2ccc(F)cc2)c(C#N)s1 [Compound 29, 1-cyano-N-(1-(5-(3-((5-cyano-4-(4-fluorophenyl)thiazol-2-yl)(methyl)amino)-2-ethylimidazo[1,2-a]pyridin-6-yl)pyrimidin-2-yl)azetidin-3-yl)cyclopropane-1-carboxamide]
8 | 20 to 200 | CCc1nc2ccc(-c3cnc(CC(=O)N4CC[C@H](O)C4)nc3)cn2c1N(C)c1nc(-c2ccc(F)cc2)c(C#N)s1 [Compound 55, (S)-2-((2-ethyl-6-(2-(2-(3-hydroxypyrrolidin-1-yl)-2-oxoethyl)pyrimidin-5-yl)imidazo[1,2-a]pyridin-3-yl)(methyl)amino)-4-(4-fluorophenyl)thiazole-5-carbonitrile]
9 | 20 to 200 | CCc1nc2ccc(-c3cnc(N4CC(C(=O)NC5CCNCC5)C4)nc3)cn2c1N(C)c1nc(-c2ccc(F)cc2)c(C#N)s1 [71 (hydrochloride salt), 1-(5-(3-((5-cyano-4-(4-fluorophenyl)thiazol-2-yl)(methyl)amino)-2-ethylimidazo[1,2-a]pyridin-6-yl)pyrimidin-2-yl)-N-(piperidin-4-yl) azetidine-3-carboxamide hydrochloride]
10 | ≤ 20 | CCc1nc2ccc(-c3cnc(N4CCN(C(=O)NC5CN(C)C5)CC4)nc3)cn2c1N(C)c1nc(-c2ccc(F)cc2)c(C#N)s1 [Compound 82 hydrochloride, 4-(5-(3-((5-cyano-4-(4-fluorophenyl)thiazol-2-yl)(methyl)amino)-2-ethylimidazo[1,2-a]pyridin-6-yl)pyrimidin-2-yl)-N-(1-methylazetidin-3-yl)piperazine-1-carboxamide hydrochloride]
11 | ≤ 20 | CCc1nc2ccc(-c3cnc(N4CCC(NC(=O)[C@H]5C[C@@H](O)CN5)CC4)nc3)cn2c1N(C)c1nc(-c2ccc(F)cc2)c(C#N)s1 [Compound 76, (2R,4R)—N-(1-(5-(3-((5-cyano-4-(4-fluorophenyl)thiazol-2-yl)(methyl)amino)-2-ethylimidazo[1,2-a]pyridin-6-yl)pyrimidin-2-vl)piperidin-4-yl)-4-hydroxypyrrolidine-2-carboxamide]
12 | ≤ 20 | CCc1nc2ccc(-c3cnc(N4CCC(C(=O)NC5CCNCC5)CC4)nc3)cn2c1N(C)c1nc(-c2ccc(F)cc2)c(C#N)s1 [Compound 73, 1-(5-(3-((5-cyano-4-(4-fluorophenyl)thiazol-2-yl)(methyl)amino)-2-ethylimidazo[1,2-a]pyridin-6-yl)pyrimidin-2-yl)-N-(piperidin-4-yl)piperidine-4-carboxamide]
13 | ≤ 20 | CCc1nc2ccc(-c3cnc(N4CCC(NC5CNC5)CC4)nc3)cn2c1N(C)c1nc(-c2ccc(F)cc2)c(C#N)s1 [Compound 68 formate, 2-((6-(2-(4-(azetidin-3-ylamino)piperidin-1-yl)pyrimidin-5-yl)-2-ethylimidazo[1,2-a]pyridin-3-yl)(methyl)amino)-4-(4-fluorophenyl)thiazole-5-carbonitrile formate]
14 | 20 to 200 | CCc1nc2ccc(-c3cnc(C4CCN(C(=O)C5CCC5)CC4)nc3)cn2c1N(C)c1nc(-c2ccc(F)cc2)c(C#N)s1 [Compound 100, 2-((6-(2-(1-(cyclobutanecarbonyl)piperidin-4-yl)pyrimidin-5-yl)-2-ethylimidazo[1,2-a]pyridin-3-yl)(methyl)amino)-4-(4-fluorophenyl)thiazole-5-carbonitrile]
15 | ≤ 20 | CCc1nc2ccc(-c3cnc(N4CCN(C(=O)[C@@H]5C[C@H](O)CN5)CC4)nc3)cn2c1N(C)c1nc(-c2ccc(F)cc2)c(C#N)s1 [Compound 7, 2-((2-ethyl-6-(2-(4-((2S,4S)-4-hydroxypyrrolidine-2-carbonyl)piperazin-1-yl)pyrimidin-5-yl)imidazo[1,2-a]pyridin-3-yl)(methyl)amino)-4-(4-fluorophenyl) thiazole-5-carbonitrile]
16 | 20 to 200 | CCc1nc2ccc(-c3cnc(N4CC(NC(=O)[C@H]5C[C@H](O)CN5)C4)nc3)cn2c1N(C)c1nc(-c2ccc(F)cc2)c(C#N)s1 [Compound 23, (2R,4S)—N-(1-(5-(3-((5-cyano-4-(4-fluorophenyl)thiazol-2-yl)(methyl)amino)-2-ethylimidazo[1,2-a]pyridin-6-yl)pyrimidin-2-yl)azetidin-3-yl)-4-hydroxypyrrolidine-2-carboxamide]
17 | 20 to 200 | CCc1nc2ccc(-c3cnc(NC4CN(C(=O)C5CNC5)C4)nc3)cn2c1N(C)c1nc(-c2ccc(F)cc2)c(C#N)s1 [Compound 36, 2-((6-(2-((1-(azetidine-3-carbonyl)azetidin-3-yl)amino)pyrimidin-5-yl)-2-ethylimidazo[1,2-a]pyridin-3-yl)(methyl)amino)-4-(4-fluorophenyl) thiazole-5-carbonitrile]
